For experiment [1], the system named is amyloid beta peptide (A-beta) in cerebrospinal fluid and brain. Briefly: In Vivo Inhibition of Beta-Secretase: reduction of A-beta levels in CSF and brain. To be noted: after 4 hrs, mouse or rat.
From the text: Several animal models, including mouse, rat, dog, and monkey, may be used to screen for inhibition of beta-secretase activity in vivo following administration of a test compound sample. Animals used in this invention can be wild type, transgenic, or gene knockout animals. […] A separate group of animals receive 2% hydroxypropyl methylcellulose, 1% Tween80 alone, containing no test compound, and serve as a vehicle-control group. At the end of the test period, animals are sacrificed and brain tissues, plasma or cerebrospinal fluid are collected. […] Homogenates are centrifuged at 355,000 g, 4° C. for 30 minutes. CSF or brain supernatants are then analyzed for the presence of A-beta peptide by specific sandwich ELISA assays based on ECL (Electrochemiluminescence) technology. For example, rat Abeta40 is measured using biotinylated-4G8 (Signet) as a capture antibody and Fab40 (an in-house antibody specific to the C-terminal of Abeta40) as a detection antibody.
The target of experiment [2] is T1, BACE1 (Homo sapiens, UniProt P56817). Briefly: In Vitro Enzymatic BACE FRET (Fluorescence Resonance Energy Transfer) Assay. It counts as biochemical. An outline of the steps:
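Buffer 0.05 M acetate pH 4.2 with 10% DMSO final and 100 uM genapol; reaction started with 50 nM FRET peptide substrate (fluorophore/quencher flanking BACE cleavage site), incubated one hour. Stopped with Tris buffer raising pH to neutrality, then fluorescence read.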

Experiment [3] has as its target T1, BACE1. Put plainly: In Vitro BACE Cell-based Assay (HEK cell assay): Aβ40 in conditioned medium of cells stably expressing Amyloid Precursor Protein, sandwich ELISA. The gist of the method:
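APP-expressing cells were cultured 24 h in DMEM/10% FBS, then treated 24 h with compounds in 10-point dose response (top 100 μM or 10 μM; 0.1% DMSO final). Secreted Aβ40 was quantified by sandwich ELISA (pAb40 capture, biotinylated 6E10 detection, Europium TRF); IC50 from percent inhibition versus concentration.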

Setting [4] is: HEK cells, read-out: HEK cell assay.
[5] abbreviates: Table IV, class symbols, read-out: BACE1 FRET assay.
Setting [6] is: Table IV, class symbols, read-out: HEK cell assay.

Structures are written as SMILES. Some results are limits rather than exact numbers.

T1 sequence (P56817 46-501, species assumed): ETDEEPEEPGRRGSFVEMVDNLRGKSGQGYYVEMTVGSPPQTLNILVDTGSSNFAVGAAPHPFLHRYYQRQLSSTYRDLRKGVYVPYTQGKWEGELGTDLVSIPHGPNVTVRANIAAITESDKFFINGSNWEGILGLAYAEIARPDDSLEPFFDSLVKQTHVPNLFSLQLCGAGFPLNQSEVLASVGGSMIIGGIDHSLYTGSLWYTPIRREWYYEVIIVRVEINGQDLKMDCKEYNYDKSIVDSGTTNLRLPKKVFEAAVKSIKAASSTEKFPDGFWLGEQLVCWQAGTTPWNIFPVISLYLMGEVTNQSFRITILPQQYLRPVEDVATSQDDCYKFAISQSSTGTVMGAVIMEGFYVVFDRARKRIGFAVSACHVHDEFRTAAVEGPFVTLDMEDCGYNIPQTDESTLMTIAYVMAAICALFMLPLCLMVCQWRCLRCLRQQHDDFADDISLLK

Take `CC1(C)CN(c2ccc3c(c2)[C@]2(COC(N)=N2)c2cc(-c4cccnc4F)ccc2O3)CCO1` [Example 290, (S)-2′-(2,2-dimethylmorpholino)-7′-(2-fluoropyridin-3-yl)-5H-spiro[oxazole-4,9′-xanthen]-2-amine]: in experiment [1] (10 mpk), the “percent reduction in CSF A-beta levels” value turned out to be 63%. Moreover, the “percent reduction in brain A-beta levels” value in experiment [1] (10 mpk) was determined as 33%. Besides, the IC50 on BACE1 [2] (read-out: BACE1 FRET assay) and at BACE1 [3] (setting [4]) was under 0.1 µM throughout.
With `NC1=N[C@]2(CO1)c1cc(C#CC3(O)CCC3)ccc1Oc1ccc(-c3cncnc3)cc12` [Example 956, 1-(((4R)-2-amino-7′-(5-pyrimidinyl)spiro[1,3-oxazole-4,9′-xanthen]-2′-yl)ethynyl)cyclobutanol], in experiment [1] (30 mpk), the “percent reduction in CSF A-beta levels” value is given as 25% and the “percent reduction in brain A-beta levels” value was determined as 8%. On BACE1 [2] (read-out: BACE1 FRET assay), the IC50 is under 0.1 µM. Besides, the IC50 on BACE1 [3] (read-out: HEK cell assay) is under 0.1 µM.
For the compound `COC(C)(C)C#Cc1cc(F)c2c(c1)[C@]1(COC(N)=N1)c1cc(-c3cncnc3)ccc1O2` [Example 673, (4S)-4′-fluoro-2′-(3-methoxy-3-methyl-1-butyn-1-yl)-7′-(5-pyrimidinyl)spiro[1,3-oxazole-4,9′-xanthen]-2-amine], in experiment [1] (30 mpk), the “percent reduction in CSF A-beta levels” value was determined as 81% and the “percent reduction in brain A-beta levels” value came to 63%. Moreover, on BACE1 [2] (read-out: BACE1 FRET assay), the IC50 was under 0.1 µM. Also, the IC50 at BACE1 [3] (read-out: HEK cell assay) is under 0.1 µM.
As to `CC(C)(C#N)COc1cc(F)c2c(c1)[C@]1(COC(N)=N1)c1cc(-c3cccnc3F)ccc1O2` [Example 287, (S)-3-(2-amino-5′-fluoro-2′-(2-fluoropyridin-3-yl)-5H-spiro[oxazole-4,9′-xanthene]-7′-yloxy)-2,2-dimethylpropanenitrile], in experiment [1] (10 mpk), the “percent reduction in CSF A-beta levels” value is listed as 48% and the “percent reduction in brain A-beta levels” value amounted to 32%. Further, at BACE1 [2] (read-out: BACE1 FRET assay), the IC50 is under 0.1 µM. In addition, at BACE1 [3] (setting [4]), the IC50 is under 0.1 µM.
`NC1=NC2(CO1)c1cc(-c3cncnc3)ccc1Oc1c(F)cc(C3=CCOCC3)cc12` (stereo in doubt) [Example 295, (R)-2′-(3,6-dihydro-2H-pyran-4-yl)-4′-fluoro-7′-(pyrimidin-5-yl)-5H-spiro[oxazole-4,9′-xanthen]-2-amine]: in experiment [1] (30 mpk), the “percent reduction in CSF A-beta levels” value was determined as 78% and the “percent reduction in brain A-beta levels” value was determined as 66%. For the same compound, the IC50 at BACE1 [2] (setting [5]) was under 0.1 µM. The IC50 at BACE1 [3] (setting [6]) is under 0.1 µM.
`CC1(C)CN(c2ccc3c(c2)[C@]2(COC(N)=N2)c2cc(-c4cccnc4)ccc2O3)CCO1` [Example 663, (4S)-2′-(2,2-dimethyl-4-morpholinyl)-7′-(3-pyridinyl)spiro[1,3-oxazole-4,9′-xanthen]-2-amine]: in experiment [1] (30 mpk), the “percent reduction in CSF A-beta levels” value amounted to 57% and the “percent reduction in brain A-beta levels” value is listed as 44%. In addition, the IC50 on BACE1 [2] (setting [5]) is under 0.1 µM. For the same compound, the IC50 at BACE1 [3] (setting [6]) was under 0.1 µM.
With `CC(C)(C)C#Cc1cnc2c(c1)[C@]1(COC(N)=N1)c1cc(-c3cncnc3)ccc1O2` [Example 299, (S)-3-(3,3-dimethylbut-1-ynyl)-7-(pyrimidin-5-yl)-5′H-spiro[chromeno[2,3-b]pyridine-5,4′-oxazol]-2′-amine], in experiment [1] (30 mpk), the “percent reduction in CSF A-beta levels” value is on record as 84% and the “percent reduction in brain A-beta levels” value amounted to 81%. Moreover, the IC50 at BACE1 [2] (read-out: BACE1 FRET assay) was under 0.1 µM. Besides, the IC50 at BACE1 [3] (read-out: HEK cell assay) was under 0.1 µM.
On to `CC1(C)CN(c2cc3c(cn2)Oc2ccc(-c4cccnc4)cc2[C@@]32COC(N)=N2)CCO1` [Example 490, (5S)-3-(2,2-dimethyl-4-morpholinyl)-7-(3-pyridinyl)spiro[chromeno[2,3-c]pyridine-5,4′-[1,3]oxazol]-2′-amine], for which, in experiment [1] (10 mpk), the “percent reduction in CSF A-beta levels” value is 28% and the “percent reduction in brain A-beta levels” value is listed as 9%. Besides, on BACE1 [2] (read-out: BACE1 FRET assay), the IC50 was under 0.1 µM. Moreover, the IC50 on BACE1 [3] (setting [4]) was under 0.1 µM.
As for `NC1=NC2(CO1)c1cc(-c3cccnc3)ccc1Oc1c(F)cc(C3=CCOCC3)cc12` (stereo in doubt) [Example 297, (R)-2′-(3,6-dihydro-2H-pyran-4-yl)-4′-fluoro-7′-(pyridin-3-yl)-5H-spiro[oxazole-4,9′-xanthen]-2-amine], in experiment [1] (30 mpk), the “percent reduction in CSF A-beta levels” value was 69% and the “percent reduction in brain A-beta levels” value is listed as 54%. On BACE1 [2] (setting [5]), the IC50 is under 0.1 µM. For the same compound, the IC50 on BACE1 [3] (setting [6]) is under 0.1 µM.
Turning to `CC(C)(F)COc1cc(F)c2c(c1)[C@]1(COC(N)=N1)c1cc(-c3cncnc3)ccc1O2` [Example 293, (S)-4′-fluoro-2′-(2-fluoro-2-methylpropoxy)-7′-(pyrimidin-5-yl)-5H-spiro[oxazole-4,9′-xanthen]-2-amine], the “percent reduction in CSF A-beta levels” value in experiment [1] (10 mpk) turned out to be 73%. The “percent reduction in brain A-beta levels” value in experiment [1] (10 mpk) amounted to 63%. In addition, the IC50 on BACE1 [2] (read-out: BACE1 FRET assay) and at BACE1 [3] (setting [4]) was under 0.1 µM each time.
With `NC1=N[C@]2(CO1)c1cc(OCC(F)(F)F)ccc1Oc1ccc(-c3cncnc3)cc12` [Example 58, (4S)-2′-(5-pyrimidinyl)-7′-(2,2,2-trifluoroethoxy)spiro[1,3-oxazole-4,9′-xanthen]-2-amine], in experiment [1] (10 mpk), the “percent reduction in CSF A-beta levels” value turned out to be 45% and the “percent reduction in brain A-beta levels” value is 29%. Moreover, on BACE1 [2] (Table II, read-out: BACE1 FRET assay), the IC50 is under 0.1 µM. Further, the IC50 on BACE1 [3] (Table II, Aβ40, 24 h incubation, read-out: HEK cell assay) lay within 0.1 to 1 µM.
Take `NC1=N[C@@]2(CO1)c1cc(-c3ccccc3)ccc1Oc1cnc(C3=CCOCC3)cc12` [Example 545, (5S)-3-(3,6-dihydro-2H-pyran-4-yl)-7-phenylspiro[chromeno[2,3-c]pyridine-5,4′-[1,3]oxazol]-2′-amine]: in experiment [1] (30 mpk), the “percent reduction in CSF A-beta levels” value worked out at 73% and the “percent reduction in brain A-beta levels” value came to 58%. At BACE1 [2] (setting [5]), the IC50 is under 0.1 µM. Also, at BACE1 [3] (setting [6]), the IC50 is under 0.1 µM.
For the compound `NC1=N[C@@]2(CO1)c1cc(-c3cccnc3F)ccc1Oc1cnc(-c3cccnc3)cc12` [Example 517, (5S)-7-(2-fluoro-3-pyridinyl)-3-(3-pyridinyl)spiro[chromeno[2,3-c]pyridine-5,4′-[1,3]oxazol]-2′-amine], in experiment [1] (10 mpk), the “percent reduction in CSF A-beta levels” value worked out at 56% and the “percent reduction in brain A-beta levels” value worked out at 36%. In addition, at BACE1 [2] (BACE1 FRET assay (uM)), the IC50 is under 0.1 µM. Besides, on BACE1 [3] (HEK cell assay (uM), HEK cells), the IC50 is under 0.1 µM.
Turning to `CC(C)(C#N)COc1ccc2c(c1)[C@@]1(COC(N)=N1)c1cc(-c3ccccc3)cnc1O2` [Example 817, 3-(((5S)-2′-amino-3-phenylspiro[chromeno[2,3-b]pyridine-5,4′-[1,3]oxazol]-7-yl)oxy)-2,2-dimethylpropanenitrile], in experiment [1] (30 mpk), the “percent reduction in CSF A-beta levels” value is 44% and the “percent reduction in brain A-beta levels” value turned out to be 25%. Moreover, the IC50 on BACE1 [2] (setting [5]) was under 0.1 µM. Further, the IC50 at BACE1 [3] (setting [6]) is under 0.1 µM.
Take `COC(C)(C)C#Cc1cnc2c(c1)[C@]1(COC(N)=N1)c1cc(-c3cnccn3)ccc1O2` [Example 586, (5S)-3-(3-methoxy-3-methyl-1-butyn-1-yl)-7-(2-pyrazinyl)spiro[chromeno[2,3-b]pyridine-5,4′-[1,3]oxazol]-2′-amine]: in experiment [1] (10 mpk), the “percent reduction in CSF A-beta levels” value is 32% and the “percent reduction in brain A-beta levels” value is 11%. Also, the IC50 on BACE1 [2] (setting [5]) was under 0.1 µM. Moreover, the IC50 on BACE1 [3] (setting [6]) is under 0.1 µM.
As to `CC(C)(C)COc1ccc2c(c1)[C@@]1(COC(N)=N1)c1cc(-c3ccncc3)cnc1O2` [Example 808, (5S)-7-(2,2-dimethylpropoxy)-3-(4-pyridinyl)spiro[chromeno[2,3-b]pyridine-5,4′-[1,3]oxazol]-2′-amine], the “percent reduction in CSF A-beta levels” value in experiment [1] (30 mpk) was determined as 55%. Moreover, the “percent reduction in brain A-beta levels” value in experiment [1] (30 mpk) was determined as 43%. For the same compound, the IC50 on BACE1 [2] (setting [5]) and on BACE1 [3] (setting [6]) was under 0.1 µM each time.

(Values after US8426447B2, “Spiro-tricyclic ring compounds as beta-secretase modulators and methods of use” (Amgen Inc., priority 2008, dated 2013).)
